Experimental findings from ChEMBL document CHEMBL1134355 (J Med Chem, 2001) are described below.

Series [1] deals with T1, Steroid 17-alpha-hydroxylase/17,20 lyase (Homo sapiens, UniProt P05093).
T1 sequence (P05093 whole entry): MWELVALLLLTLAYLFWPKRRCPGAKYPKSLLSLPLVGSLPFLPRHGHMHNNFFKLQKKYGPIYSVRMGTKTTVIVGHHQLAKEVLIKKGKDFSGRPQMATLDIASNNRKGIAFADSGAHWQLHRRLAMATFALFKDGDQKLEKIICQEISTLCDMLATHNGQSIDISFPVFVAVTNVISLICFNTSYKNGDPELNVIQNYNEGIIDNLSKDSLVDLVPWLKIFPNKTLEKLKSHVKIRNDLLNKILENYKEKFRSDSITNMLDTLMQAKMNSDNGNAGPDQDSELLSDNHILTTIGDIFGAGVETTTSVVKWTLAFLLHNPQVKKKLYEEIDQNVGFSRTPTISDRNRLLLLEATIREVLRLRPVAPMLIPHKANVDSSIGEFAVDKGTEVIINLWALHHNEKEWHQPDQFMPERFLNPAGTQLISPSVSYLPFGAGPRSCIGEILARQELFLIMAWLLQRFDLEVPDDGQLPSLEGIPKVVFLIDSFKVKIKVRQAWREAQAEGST

Series [2] deals with T2, Aromatase (Homo sapiens, UniProt P11511).
T2 sequence (P11511 whole entry): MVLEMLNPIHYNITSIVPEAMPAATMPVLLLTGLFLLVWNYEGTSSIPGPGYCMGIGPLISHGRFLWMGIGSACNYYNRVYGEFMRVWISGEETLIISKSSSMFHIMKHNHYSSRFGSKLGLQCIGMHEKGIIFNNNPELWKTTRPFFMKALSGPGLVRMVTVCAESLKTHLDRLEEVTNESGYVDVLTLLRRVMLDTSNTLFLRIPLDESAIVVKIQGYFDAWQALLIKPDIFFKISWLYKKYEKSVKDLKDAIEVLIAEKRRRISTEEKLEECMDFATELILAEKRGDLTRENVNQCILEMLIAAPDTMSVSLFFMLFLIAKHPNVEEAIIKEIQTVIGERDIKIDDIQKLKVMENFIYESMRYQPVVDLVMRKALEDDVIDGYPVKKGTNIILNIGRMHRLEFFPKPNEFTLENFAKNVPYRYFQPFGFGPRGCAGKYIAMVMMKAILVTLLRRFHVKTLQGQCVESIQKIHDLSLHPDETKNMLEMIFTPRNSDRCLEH

Series [3] has as its target T1, Steroid 17-alpha-hydroxylase/17,20 lyase. This is another data set of the same source.
The species named for series [4] is Homo sapiens.

In turn, `O=c1c2ccccc2oc2c(Cn3ccnc3)ccc(Br)c12` displayed an inhibition at 2.5 µM in series [1] of 38%. In turn, `COc1ccc2c(=O)c(Cn3cnnc3)c(-c3ccccc3)oc2c1` gave an inhibition at 25 µM in series [2] of 21%. Further, the inhibition at 2.5 µM in series [1] amounted to 14%. In series [1], `N#Cc1ccc(Cn2ccnc2)c2oc3ccccc3c(=O)c12` registered an inhibition at 2.5 µM of 14%. On the same count and under the same terms, the same measure for `O=c1c2ccccc2oc2cc(Cn3ccnc3)ccc12`: 33%; for `O=c1ccoc2cc(Cn3cnnc3)ccc12`: 5%.

Compound `N#Cc1ccc(Cn2ccnc2)c2c(=O)c3ccccc3oc12` registered an IC50 in series [3] of 220 nM. Also, in series [1], at 2.5 µM the inhibition was 92%. In series [3], `O=c1c2ccccc2oc2c([N+](=O)[O-])ccc(Cn3ccnc3)c12` showed an IC50 of 130 nM. This compound also displayed an inhibition at 2.5 µM in series [1] of 94%.

With `O=c1ccoc2c(Cn3ccnc3)ccc([N+](=O)[O-])c12`, testing at 2.5 µM in series [1] gave an inhibition of 5%. The same measure, in the same setting: the same measure for `COc1ccc2c(=O)c(Cn3ccnc3)c(-c3ccccc3)oc2c1`: 44%. Consider `O=c1c2ccccc2oc2c(Br)ccc(Cn3ccnc3)c12`, for which, in series [3], the IC50 was 42 nM. Also, the inhibition at 2.5 µM in series [1] was determined as 98%. Take `O=c1c2ccccc2oc2c(Cn3ccnc3)ccc([N+](=O)[O-])c12`: in series [1], the inhibition at 2.5 µM came to 4%. In addition, the Km in series [4] was found to be 65.1 nM. Take `O=c1ccoc2cc(Cn3ccnc3)ccc12`: at 2.5 µM the inhibition in series [1] was 9%. For the compound `O=c1c2ccccc2oc2cc(Cn3cnnc3)ccc12`, at 25 µM the inhibition in series [2] was 27%. Besides, testing at 2.5 µM in series [1] gave an inhibition of 8%. In series [1], `N#Cc1ccc(Cn2ccnc2)c2occc(=O)c12` displayed an inhibition at 2.5 µM of 3%.

Regarding `O=c1ccoc2c(Cn3ccnc3)ccc(Br)c12`, the inhibition at 2.5 µM in series [1] worked out at 26%.

What is called inhibition is the share of the control response that was lost under treatment. Low values mean a weak effect, high ones a strong effect. A word on the IC50: it is the concentration needed to halve the response being measured. As a reminder, the Km is the concentration of substrate that gives half-maximal velocity.
